Reference: ChEMBL document CHEMBL1153174, “Structure-activity relationships of N-substituted ligands for the alpha7 nicotinic acetylcholine receptor” (Bioorg Med Chem Lett, 2010)
The source made the active and inactive calls. The rule behind the calls is not given here.

Legend:
[1] = biological target: Neuronal acetylcholine receptor subunit alpha-7 (Rattus norvegicus, UniProt Q05941); experiment: Displacement of [3H]585539 from alpha7 nAChR in rat brain; format: tissue-based
[2] = biological target: T1, Neuronal acetylcholine receptor subunit alpha-7 (Homo sapiens, UniProt P36544); experiment: Agonist activity at human recombinant alpha7 nAChR expressed in xenopus oocytes assessed as induction of Ca2+ current; format: functional, cell-based, Oocyte
[3] = biological target: Neuronal acetylcholine receptor; alpha4/beta2 (Rattus norvegicus) (UniProt P09483+P12390); experiment: Displacement of [3H]cytisine from rat brain alpha4beta2 nAChR up to 10 uM
[4] = biological target: T1, Neuronal acetylcholine receptor subunit alpha-7; experiment: Agonist activity at human recombinant alpha7 nAChR expressed in xenopus oocytes assessed as induction of Ca2+ current relative to acetylcholine; format: functional, cell-based; details: Oocyte
[5] = biological target: Neuronal acetylcholine receptor; alpha4/beta2 (Homo sapiens, UniProt P17787+P43681); experiment: Inhibition of alpha4beta2 nAChR; format: protein-complex assay
[6] = biological target: Neuronal acetylcholine receptor; alpha3/beta4 (Homo sapiens, UniProt P30926+P32297); experiment: Inhibition of alpha3beta4 nAChR
Neuronal acetylcholine receptor; alpha3/beta4, sequence (P30926 whole entry): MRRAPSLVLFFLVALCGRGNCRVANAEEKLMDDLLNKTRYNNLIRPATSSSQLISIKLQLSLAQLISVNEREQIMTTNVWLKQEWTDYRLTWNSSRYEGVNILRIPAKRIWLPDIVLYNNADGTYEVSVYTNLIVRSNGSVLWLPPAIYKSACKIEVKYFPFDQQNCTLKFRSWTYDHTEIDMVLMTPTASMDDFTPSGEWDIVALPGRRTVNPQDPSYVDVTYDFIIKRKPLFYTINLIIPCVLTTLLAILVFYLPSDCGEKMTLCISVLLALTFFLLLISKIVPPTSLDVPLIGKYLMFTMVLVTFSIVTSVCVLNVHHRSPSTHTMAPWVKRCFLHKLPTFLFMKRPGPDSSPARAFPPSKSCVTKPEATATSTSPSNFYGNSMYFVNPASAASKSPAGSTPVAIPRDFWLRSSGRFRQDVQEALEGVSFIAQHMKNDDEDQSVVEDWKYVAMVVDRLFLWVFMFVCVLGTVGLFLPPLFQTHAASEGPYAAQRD
Neuronal acetylcholine receptor; alpha3/beta4, sequence (P32297 whole entry): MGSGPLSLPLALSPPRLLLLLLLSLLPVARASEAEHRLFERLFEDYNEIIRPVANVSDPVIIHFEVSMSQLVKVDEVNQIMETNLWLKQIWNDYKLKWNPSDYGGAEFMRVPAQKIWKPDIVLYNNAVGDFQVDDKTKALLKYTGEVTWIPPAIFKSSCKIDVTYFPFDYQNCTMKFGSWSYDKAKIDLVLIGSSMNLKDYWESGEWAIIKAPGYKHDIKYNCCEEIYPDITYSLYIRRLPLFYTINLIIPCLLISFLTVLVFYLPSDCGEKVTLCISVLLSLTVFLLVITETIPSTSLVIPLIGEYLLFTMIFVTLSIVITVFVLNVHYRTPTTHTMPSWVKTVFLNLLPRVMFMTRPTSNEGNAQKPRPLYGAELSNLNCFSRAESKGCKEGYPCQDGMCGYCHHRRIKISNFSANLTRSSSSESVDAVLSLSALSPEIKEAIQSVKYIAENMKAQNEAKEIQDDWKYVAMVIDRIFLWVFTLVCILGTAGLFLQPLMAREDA

T1 sequence (P36544 whole entry): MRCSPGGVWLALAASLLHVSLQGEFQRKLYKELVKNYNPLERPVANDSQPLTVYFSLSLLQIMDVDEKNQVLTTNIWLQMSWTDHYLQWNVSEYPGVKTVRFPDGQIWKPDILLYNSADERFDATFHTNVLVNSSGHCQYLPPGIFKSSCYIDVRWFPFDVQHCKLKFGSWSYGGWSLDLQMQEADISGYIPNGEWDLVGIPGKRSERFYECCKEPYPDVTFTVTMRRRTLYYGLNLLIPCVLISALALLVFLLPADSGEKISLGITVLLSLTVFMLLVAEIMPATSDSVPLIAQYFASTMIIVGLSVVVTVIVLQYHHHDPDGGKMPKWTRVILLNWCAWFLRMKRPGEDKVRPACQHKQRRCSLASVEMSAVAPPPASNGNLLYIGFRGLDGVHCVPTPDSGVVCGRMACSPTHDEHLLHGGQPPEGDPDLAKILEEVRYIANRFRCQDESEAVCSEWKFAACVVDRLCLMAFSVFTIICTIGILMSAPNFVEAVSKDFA
Neuronal acetylcholine receptor subunit alpha-7 (Rattus norvegicus, UniProt Q05941), sequence (Q05941 whole entry): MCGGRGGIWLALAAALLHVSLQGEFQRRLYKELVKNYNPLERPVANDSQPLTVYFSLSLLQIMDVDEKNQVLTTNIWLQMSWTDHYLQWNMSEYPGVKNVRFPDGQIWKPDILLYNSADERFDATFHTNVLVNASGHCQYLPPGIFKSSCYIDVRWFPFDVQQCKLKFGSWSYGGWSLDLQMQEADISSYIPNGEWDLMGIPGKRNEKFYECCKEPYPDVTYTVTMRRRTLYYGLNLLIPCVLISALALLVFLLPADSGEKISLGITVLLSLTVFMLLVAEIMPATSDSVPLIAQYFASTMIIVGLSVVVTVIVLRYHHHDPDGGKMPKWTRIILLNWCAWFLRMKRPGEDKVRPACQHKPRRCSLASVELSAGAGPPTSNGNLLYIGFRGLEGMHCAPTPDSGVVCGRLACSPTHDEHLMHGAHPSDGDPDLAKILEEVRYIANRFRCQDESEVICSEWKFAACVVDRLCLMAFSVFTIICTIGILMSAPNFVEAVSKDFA
Neuronal acetylcholine receptor; alpha4/beta2, sequence (P17787 whole entry): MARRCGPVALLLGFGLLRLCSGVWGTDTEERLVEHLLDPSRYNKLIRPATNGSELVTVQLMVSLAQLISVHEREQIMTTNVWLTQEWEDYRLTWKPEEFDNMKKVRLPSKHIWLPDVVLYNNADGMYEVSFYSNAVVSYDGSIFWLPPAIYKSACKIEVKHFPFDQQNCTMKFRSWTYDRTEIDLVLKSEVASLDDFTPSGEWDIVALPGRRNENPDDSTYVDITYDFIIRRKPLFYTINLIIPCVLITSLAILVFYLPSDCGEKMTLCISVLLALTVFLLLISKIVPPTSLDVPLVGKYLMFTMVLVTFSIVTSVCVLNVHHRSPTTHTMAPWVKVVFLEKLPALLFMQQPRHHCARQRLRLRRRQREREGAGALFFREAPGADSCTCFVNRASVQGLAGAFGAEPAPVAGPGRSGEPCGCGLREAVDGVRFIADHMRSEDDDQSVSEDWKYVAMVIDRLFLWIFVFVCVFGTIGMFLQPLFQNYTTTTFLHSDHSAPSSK
Neuronal acetylcholine receptor; alpha4/beta2, sequence (P43681 whole entry): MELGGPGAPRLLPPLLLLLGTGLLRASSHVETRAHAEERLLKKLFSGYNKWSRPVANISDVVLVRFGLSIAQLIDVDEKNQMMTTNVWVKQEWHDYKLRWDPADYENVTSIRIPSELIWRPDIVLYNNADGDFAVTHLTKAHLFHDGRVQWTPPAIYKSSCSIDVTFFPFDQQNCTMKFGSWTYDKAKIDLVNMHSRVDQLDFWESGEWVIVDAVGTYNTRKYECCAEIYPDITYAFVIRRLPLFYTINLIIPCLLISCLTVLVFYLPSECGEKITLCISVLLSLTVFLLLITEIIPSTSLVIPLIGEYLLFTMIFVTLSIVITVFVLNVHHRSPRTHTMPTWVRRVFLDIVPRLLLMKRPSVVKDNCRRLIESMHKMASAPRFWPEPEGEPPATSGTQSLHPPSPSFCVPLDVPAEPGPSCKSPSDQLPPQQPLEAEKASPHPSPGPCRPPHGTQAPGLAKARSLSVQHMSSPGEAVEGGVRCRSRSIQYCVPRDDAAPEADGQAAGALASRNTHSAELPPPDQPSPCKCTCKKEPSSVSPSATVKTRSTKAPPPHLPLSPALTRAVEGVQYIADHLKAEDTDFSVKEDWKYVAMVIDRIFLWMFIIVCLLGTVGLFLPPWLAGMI

SMILES | Ki [1] [nM] | Activity [3] | also measured
CN1C[C@@H]2CN(c3ccc(-c4ccccc4)nn3)C[C@@H]2[C@@H]1COc1cccnc1 | 320 |  | EC50 [2]: > 100 µM
CCN(C)C1CCN(c2ccc(-c3ccccc3)nn2)C1 (racemic) | 746 | inactive | 
Clc1ccc(CN2C[C@@H]3CN(c4ccc(-c5ccccc5)nn4)C[C@@H]3C2)cn1 | 102 | inactive | EC50 [2]: 11.8 µM; Activity [4]: 13%
CN(C)C1CCN(c2ccc(-c3ccccc3)nn2)C1 (racemic) | 478 | inactive | 
c1ccc(-c2ccc(N3C[C@H]4CN(Cc5ccccn5)C[C@H]4C3)nn2)cc1 | 533 | inactive | 
c1ccc(-c2ccc(N3C[C@H]4CN(Cc5cccnc5)C[C@H]4C3)nn2)cc1 | 3.6 | inactive | EC50 [2]: 9.36 µM; Activity [4]: 84%
c1ccc(CN2C[C@@H]3CN(c4ccc(-c5ccccc5)nn4)C[C@@H]3C2)cc1 | 476 | inactive | 
CN(Cc1ccc(Cl)nc1)C1CCN(c2ccc(-c3ccccc3)nn2)C1 (racemic) | > 10 | inactive | 
CN1C[C@@H]2CN(c3ccc(-c4ccccc4)nn3)C[C@@H]2C1 |  |  | Ki [5]: > 100 µM; Ki [6]: 4.7 µM
CCN1C[C@@H]2CN(c3ccc(-c4ccccc4)nn3)C[C@@H]2C1 |  | inactive | 
Clc1ccc(C2CC3CCC2N3)cn1 (stereo not drawn) |  |  | INH [5]: 0.1 nM
CN(Cc1ccccn1)C1CCN(c2ccc(-c3ccccc3)nn2)C1 (racemic) | > 10000 | inactive | 
CN(Cc1ccccc1)C1CCN(c2ccc(-c3ccccc3)nn2)C1 (racemic) | > 10000 | inactive | 
c1ccc(-c2ccc(N3C[C@H]4CN(Cc5ccncc5)C[C@H]4C3)nn2)cc1 | 541 | inactive | 
CN1C[C@@H]2CN(c3ccc(-c4ccccc4)nn3)C[C@@H]2[C@H]1COc1cccnc1 | 42 |  | EC50 [2]: 12.9 µM; Activity [4]: 44%
CN(Cc1cccnc1)C1CCN(c2ccc(-c3ccccc3)nn2)C1 (racemic) | > 10000 | inactive | 
CN(Cc1ccncc1)C1CCN(c2ccc(-c3ccccc3)nn2)C1 (racemic) | > 10 | inactive | 
CNC1CCN(c2ccc(-c3ccccc3)nn2)C1 (stereo not drawn) | > 10 |  | 
